According to US12448400B2, “KRAS G12D modulating compounds” (priority 2023, dated 2025):

What was measured:
[1] = Dog oral pharmacokinetics; set-up: species or system Male Beagle dogs; settings: male, Beagle, in vivo
Experimental: Dog Oral Pharmacokinetics
(§1) Test compounds were formulated in solution formulations (10% w/v % Sulfobutylether-p-cyclodextrin; 90% w/v % 50 mM Citrate Buffer) and administered orally at 5 or 10 mg-eq./kg to a group of three Male Beagle dogs. The animals were fasted overnight prior to dose administration and up to four hours after dosing. The test articles were administrated by oral gavage at a dose volume of 5 ml/kg.
(§2) Blood samples were collected into K2EDTA tubes at predose and 0.25, 0.5, 1, 2, 4, 6, 8, 12, 24 hours post dose, and once daily collection post 24 hours up to 168 hours. Whole blood were stored on wet ice and processed to plasma by centrifugation (3500 rpm for 10 minutes at 5° C.) within 1 hour of collection. Plasma samples were placed in Micronic 96 well tubes and stored at −80° C. until transferred. Plasma concentration of the test compounds was determined by LC-MS/MS. Pharmacokinetic parameters were estimated using non-compartment model analysis. The maximum observed concentration (Cmax) and area under the curve from time of dosing to last measured concentration (AUClast) were calculated and reported.

[2] = Mouse oral cassette pharmacokinetics; format: in vivo, male CD-1 mice; settings: male, CD-1, mouse, in vivo, po, 30 mg/kg
Procedure, shortened: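 Male CD-1 mice (n=4) dosed orally by gavage at 30 mg-eq./kg per compound as cassettes of 1–3 compounds in 10 w/v % Captisol/50 mM citrate. Plasma sampled 0.5–24 h post dose, analysed by LC-MS/MS; Cmax and AUClast from non-compartmental analysis.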

[3] = Rat oral pharmacokinetics; set-up: species or system Male Sprague Dawley rats; settings: male, Sprague Dawley, in vivo
Experimental: Rat Oral Pharmacokinetics
as §1, with “(10” for “(10%”, “orally” for “orally at 5 or 10 mg-eq./kg”, “Sprague Dawley rats.” for “Beagle dogs.”, “mL-eq/kg.” for “ml/kg.”
as §2, with “collected” for “collected into K2EDTA tubes”, “12, 24, 48 and 72” for “12, 24”, “post dose into K2EDTA tubes” for “post dose,”, “and” for “and once daily collection post 24 hours up to 168 hours. Whole blood were”, “ice until processed. Whole blood was” for “ice and”, “within 30 minutes” for “within 1 hour”

GP2D (KRAS G12D) cells = assay: 2D cell viability assay (CellTiter-Glo); format: cell-based; settings: 96 h; GP2D cells, 4 days, CellTiter-Glo luminescence; read-out: G12D 2D EC50
Procedure, shortened: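 Viability was read by CellTiter-Glo after 4 days at 37 °C of 2D culture of KRAS G12D GP2D cells (1000/well, RPMI, 10% FBS) on pre-spotted threefold compound dilutions. EC50 was fitted with a sigmoidal dose-response model as the point of half-maximal luminescence loss.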

| Structure (SMILES) | Dog Parent % F ([1]; 10 mg/kg) | Mouse Parent AUC (nM * h) [2] | EC50 (GP2D (KRAS G12D) cells) | Rat Parent % F ([3]; 7.5 mg/kg) | Rat Parent AUC ([3]; 7.5 mg/kg) | other results |
| --- | --- | --- | --- | --- | --- | --- |
| C#Cc1c(F)ccc2cc(O)cc(-c3nc4c5c(nc(OC[C@@]67CCCN6C[C@H](F)C7)nc5c3F)N3C[C@H]5CC[C@H](N5)[C@H]3CCC4)c12 [Comp. Ex. 75, reference compound] | 0.6% | – | – | – | – | Dog Parent AUC ([1]; 10 mg/kg): 71 nM·h; Mouse Parent AUC [2]: 51 nM·h |
| C#Cc1c(F)ccc2cccc(-c3nc4c5c(nc(OC[C@@]67CCCN6C[C@H](F)C7)nc5c3F)N3C[C@H]5CC[C@H](N5)[C@H]3CCC4)c12 [Comp. Ex. 76, (6aR,7S,10R)-2-(8-ethynyl-7-fluoronaphthalen-1-yl)-1-fluoro-13-(((2R,7aS)-2-fluorotetrahydro-1H-pyrrolizin-7a(5H)-yl)methoxy)-5,6,6a,7,8,9,10,11-octahydro-4H-3,11a,12,14,15-pentaaza-7,10-methanocyclohepta[4,5]cycloocta[1,2,3-de]naphthalene, reference compound] | – | 1,400 nM * h | – | – | – | Rat Parent % F ([3]; 5 mg/kg): 2%; Rat Parent AUC ([3]; 5 mg/kg): 59 nM·h |
| Cc1oc(=O)oc1CN1[C@@H]2CC[C@H]1[C@H]1CCCc3nc(-c4cc(O)cc5ccc(F)c(OC(F)(F)F)c45)c(F)c4nc(OC[C@@]56CCCN5C[C@H](F)C6)nc(c34)N1C2 [Example 18, 4-(((6aR,7S,10R)-1-fluoro-2-(7-fluoro-3-hydroxy-8-(trifluoromethoxy)naphthalen-1-yl)-13-(((2R,7aS)-2-fluorotetrahydro-1H-pyrrolizin-7a(5H)-yl)methoxy)-5,6,6a,7,8,9,10,11-octahydro-4H-3,11a,12,14,15-pentaaza-7,10-methanocyclohepta[4,5]cycloocta[1,2,3-de]naphthalen-15-yl)methyl)-5-methyl-1,3-dioxol-2-one] | 12% | – | – | – | – | Dog Parent AUC ([1]; 10 mg/kg): 600 nM·h |
| C#Cc1c(F)ccc2cc(N)cc(-c3nc4c5c(nc(OC[C@@]67CCCN6C[C@H](F)C7)nc5c3F)N3C[C@H]5CC[C@@H]([C@H]3CCC4)N5Cc3oc(=O)oc3C)c12 [Example 33, 4-(((6aR,7S,10R)-2-(3-amino-8-ethynyl-7-fluoronaphthalen-1-yl)-1-fluoro-13-(((2R,7aS)-2-fluorotetrahydro-1H-pyrrolizin-7a(5H)-yl)methoxy)-5,6,6a,7,8,9,10,11-octahydro-4H-3,11a,12,14,15-pentaaza-7,10-methanocyclohepta[4,5]cycloocta[1,2,3-de]naphthalen-15-yl)methyl)-5-methyl-1,3-dioxol-2-one] | 11% | 1,500 nM * h | 0.71 nM | – | – | Dog Parent AUC (nM * h) ([1]; 10 mg/kg): 2,200 nM * h; Rat Parent % F ([3]; 15 mg/kg): 3.3%; Rat Parent AUC ([3]; 15 mg/kg): 180 nM·h |
| C#Cc1c(F)ccc2cc(N)cc(-c3nc4c5c(nc(OC[C@@]67CCCN6C[C@H](F)C7)nc5c3F)N3C[C@H]5CC[C@@H]([C@H]3CCC4)N5Cc3oc(=O)oc3CC)c12 [Example 34, 4-(((6aR,7S,10R)-2-(3-amino-8-ethynyl-7-fluoronaphthalen-1-yl)-1-fluoro-13-(((2R,7aS)-2-fluorotetrahydro-1H-pyrrolizin-7a(5H)-yl)methoxy)-5,6,6a,7,8,9,10,11-octahydro-4H-3,11a,12,14,15-pentaaza-7,10-methanocyclohepta[4,5]cycloocta[1,2,3-de]naphthalen-15-yl)methyl)-5-ethyl-1,3-dioxol-2-one] | – | 1,300 nM * h | 0.4 nM | – | – | Dog Parent % F ([1]; 5 mg/kg): 12%; Dog Parent AUC (nM * h) ([1]; 5 mg/kg): 1,200 nM * h; Rat Parent % F ([3]; 15 mg/kg): 5%; Rat Parent AUC ([3]; 15 mg/kg): 270 nM·h |
| C#Cc1c(F)ccc2cc(O)cc(-c3nc4c5c(nc(OC[C@@]67CCCN6[C@H](COC(C(F)(F)F)(C(F)(F)F)C(F)(F)F)CC7)nc5c3F)N3C[C@H]5CC[C@@H]([C@H]3CCC4)N5Cc3oc(=O)oc3C)c12 [Example 38, 4-(((6aR,7S,10R)-2-(8-ethynyl-7-fluoro-3-hydroxynaphthalen-1-yl)-1-fluoro-13-(((3S,7aS)-3-(((1,1,1,3,3,3-hexafluoro-2-(trifluoromethyl)propan-2-yl)oxy)methyl)tetrahydro-1H-pyrrolizin-7a(5H)-yl)methoxy)-5,6,6a,7,8,9,10,11-octahydro-4H-3,11a,12,14,15-pentaaza-7,10-methanocyclohepta[4,5]cycloocta[1,2,3-de]naphthalen-15-yl)methyl)-5-methyl-1,3-dioxol-2-one] | – | 2,100 nM * h | 0.25 nM | 3% | 280 nM·h | Dog Parent % F ([1]; 5 mg/kg): 4.2%; Dog Parent AUC ([1]; 5 mg/kg): 210 nM·h |
| C#Cc1c(F)ccc2cc(O)cc(-c3nc4c5c(nc(OC[C@@]67CCCN6C[C@H](F)C7)nc5c3F)N3C[C@H]5CC[C@@H]([C@@H]3[C@H]3CCC[C@@H]43)N5Cc3oc(=O)oc3C)c12 [Example 42, 4-(((3aS,3bS,4S,7R,14bR)-13-(8-ethynyl-7-fluoro-3-hydroxynaphthalen-1-yl)-12-fluoro-10-(((2R,7aS)-2-fluorotetrahydro-1H-pyrrolizin-7a(5H)-yl)methoxy)-2,3,3a,3b,4,5,6,7,8,14b-decahydro-1H-8a,9,11,14,15-pentaaza-4,7-methanocyclopenta[d]naphtho[1,8-ab]heptalen-15-yl)methyl)-5-methyl-1,3-dioxol-2-one] | – | – | 1.7 nM | 0.3% | 200 nM·h | – |
| C#Cc1c(F)ccc2cc(N)cc(-c3nc4c5c(nc(OC[C@@]67CCCN6C[C@H](F)C7)nc5c3F)N3C[C@H]5CC[C@@H]([C@H]3CCC4)N5Cc3oc(=O)oc3C(C)C)c12 [Example 80, 4-(((6aR,7S,10R)-2-(3-amino-8-ethynyl-7-fluoronaphthalen-1-yl)-1-fluoro-13-(((2R,7aS)-2-fluorotetrahydro-1H-pyrrolizin-7a(5H)-yl)methoxy)-5,6,6a,7,8,9,10,11-octahydro-4H-3,11a,12,14,15-pentaaza-7,10-methanocyclohepta[4,5]cycloocta[1,2,3-de]naphthalen-15-yl)methyl)-5-isopropyl-1,3-dioxol-2-one] | – | – | 0.37 nM | 2.1% | 57 nM·h | – |
| C#Cc1c(F)ccc2cc(N)cc(-c3nc4c5c(nc(OC[C@@]67CCCN6C[C@H](F)C7)nc5c3F)N3C[C@H]5CC[C@@H]([C@H]3CCC4)N5Cc3oc(=O)oc3C(C)(C)C)c12 [Example 81, 4-(((6aR,7S,10R)-2-(3-amino-8-ethynyl-7-fluoronaphthalen-1-yl)-1-fluoro-13-(((2R,7aS)-2-fluorotetrahydro-1H-pyrrolizin-7a(5H)-yl)methoxy)-5,6,6a,7,8,9,10,11-octahydro-4H-3,11a,12,14,15-pentaaza-7,10-methanocyclohepta[4,5]cycloocta[1,2,3-de]naphthalen-15-yl)methyl)-5-(tert-butyl)-1,3-dioxol-2-one] | – | – | 0.63 nM | 0.4% | 11 nM·h | – |
